The source of these data is patent publication US8394765B2, “Methods of treating obesity with two different anti-obesity agents” (Amylin Pharmaceuticals LLC, priority 2004, dated 2013).

The conditions of data set [1]: treated test animals; e.g. provoking marked hyperlactemia followed by hyperglycemia; cited from earlier work.
The nature of data set [2]: DIO rats, amylin and exendin-4 analog, body weight and body composition (Example 6). Type of data set: in vivo, rat. Here is the method: […]. Prior to drug administration rats had typically attained a mean body weight of 500 g Exendin-4 analog was administered by minipump at a range of doses (0.3, 1, 3, 10, 30 μg/kg/day). Amylin (dissolved in 50% DMSO in water) or vehicle was administered by mini-pump (100 μg/kg/day). Body weight and food intake was recorded daily. Body composition was measured prior to and after drug treatment using NMR (Echo Medical Systems, Houston, Tex.). For body composition measurements, rats were briefly placed (˜1 min) in a well-ventilated plexiglass tube that was then inserted into a specialized rodent NMR machine. Rats were scanned prior to pump implantation and on the final day of the experiment. This enabled the calculation of changes in actual grams of fat and dry lean tissue (e.g., grams of body fat after treatment−grams of body fat at baseline=change in grams of body fat) and changes in % body composition for fat and dry lean tissue (e.g., % body fat after treatment−% body fat at baseline=change in % body fat).

For data set [3] the following is noted: compared to human amylin; cited from earlier work.
Data set [4] is described as follows: DIO rats, amylin and PYY(3-36), body weight and body composition (Example 7). The class given is in vivo, rat. As to the method: Each group was implanted with subcutaneous osmotic mini-pumps, designed to deliver vehicle, PYY(3-36) (1000 μg/kg/day), amylin (100 μg/kg/day) or PYY(3-36) (1000 μg/kg/day)+amylin (100 μg/kg/day) for a 14 day period. PYY(3-36) was administered by mini-pump at a range of doses (100, 200, 400, 800, 1000 μg/kg/day). Amylin 100 μg/kg/day (dissolved in 50% DMSO sterile water), PYY(3-36) (dissolved in 50% DMSO sterile water) or vehicle was administered by mini-pump. Food intake and body weight was recorded daily. Body composition was measured prior to and after drug treatment using NMR (Echo Medical Systems, Houston, Tex.). For body composition measurements, rats were briefly placed (˜1 min) in a well-ventilated plexiglass tube that was then inserted into a specialized rodent NMR machine. Rats were scanned prior to pump implantation and on the final day of the experiment. This enabled the calculation of changes in actual grams of fat and dry lean tissue (e.g., grams of body fat after treatment−grams of body fat at baseline […]) and changes in % body composition for fat and dry lean tissue (e.g., % body fat after treatment−% body fat at baseline=change in % body fat).

Data set [5] can be described thus: DIO (Levin) rats, amylin and CB-1 antagonist rimonabant, body weight and body composition (Example 5). Type of data set: in vivo, rat. Here is the method:
These rats were developed by Barry Levin from a line of Crl:CD®(SD)BR rats that are prone to become obese on a diet relatively high in fat and energy. They were housed individually in shoebox cages at 22 C in a 12/12-hour light dark cycle. […] Rats were habituated to oral gavage for 1 week prior to treatment. Rimonabant was administered at a range of doses (0.1, 0.3, 1.0, 3.0. 10 mg/kg/day) by oral gavage. Amylin (dissolved in 50% DMSO sterile water) or vehicle was administered by mini-pump (100 μg/kg/day). Rimonabant was always delivered just prior to lights out. Food intake and body weight were measured at 1 and 2 weeks post-treatment. Body composition was measured prior to and after drug treatment using NMR (Echo Medical Systems, Houston, Tex.). For body composition measurements, rats were briefly placed (˜1 min) in a well-ventilated plexiglass tube that was then inserted into a specialized rodent NMR machine. Rats were scanned prior to pump implantation and on the final day of the experiment. This enabled the calculation of changes in actual grams of fat and dry lean tissue (e.g., grams of body fat after treatment−grams of body fat at baseline=change in grams of body fat) and changes in % body composition for fat and dry lean tissue (e.g., % body fat after treatment−% body fat at baseline=change in % body fat).

The nature of data set [6]: 24-week randomized, double-blind, active-drug-controlled study of pramlintide and metreleptin in overweight and obese subjects (Example 8). The class given is in vivo, human. Here is the method: To evaluate inter alia the safety, tolerability and effect of the combination of an amylin agonist (pramlintide) and a leptin (metreleptin) on changes in body weight, a 24-week, randomized, double-blind, active-drug-controlled, multicenter study was conducted under USFDA approved protocols. Secondary objectives of the study were the determination of the pharmacokinetics of pramlintide and leptin, waist circumference, rate of change in body weight, and patient reported outcomes including for example without limitation perception of well-being related to weight change and mood. The study enrolled overweight and obese subjects with defined BMI ([…]), with enrollment statistics as provided in Table 2. […] Subjects treated with pramlintide/metreleptin lost an average of 25 pounds from the start of the 24-week study compared with an average of 17 pounds for subjects treated with pramlintide alone.
In an initial lead-in phase, all subjects received dietary instructions and treatment with pramlintide at 180 mcg BID for two weeks, followed by pramlintide at 360 mcg BID for two weeks. Subjects who completed the 4-week lead-in period and who lost 2-8 percent body weight during this period were eligible to continue the study. The term “enrolled” (Table 2) refers to subjects (N=177) receiving at least one dose of pramlintide during the lead-in period. The term “non-randomized” refers to subjects not continuing in the study past the lead-in period. The term “evaluable” refers to subjects who completed Visit 9 (Week 16) study procedures and adequately complied with the study protocol.
After the 4-week lead-in period, for the remaining 20 weeks of the study the subjects were randomized in a 2:2:1 ratio to one of three groups with BID treatment of 1) pramlintide 360 mcg/metreleptin 5 mg (“Leptin+Pramlintide”); 2) pramlintide 360 mcg/placebo (“Pramlintide”); or 3) metreleptin 5 mg/placebo (“Leptin”).

A short description of data set [7]: DIO rats, amylin and sibutramine, body weight and body composition (Example 4). The class given is in vivo, rat. As to the method: Rat amylin was dissolved in 50% DMSO in sterile water and sibutramine was dissolved in sterile water. Each group was implanted with subcutaneous osmotic mini-pumps designed to deliver vehicle, sibutramine (3 mg/kg/day) or amylin (100 μg/kg/day) for a 14 day period. Body weight and food intake were recorded daily. Body composition was measured prior to and after drug treatment using NMR (Echo Medical Systems, Houston, Tex.). For body composition measurements, rats were briefly placed (˜1 min) in a well-ventilated plexiglass tube that was then inserted into a specialized rodent NMR machine. Rats were scanned prior to pump implantation and on the final day of the experiment. This enabled the calculation of changes in actual grams of fat and dry lean tissue (e.g., grams of body fat after treatment−grams of body fat at baseline=change in grams of body fat) and changes in % body composition for fat and dry lean tissue (e.g., % body fat after treatment−% body fat at baseline=change in % body fat).

Data set [8] can be described thus: DIO rats, amylin and phentermine, body weight and body composition (Example 4). The class given is in vivo, rat. As to the method:
The combination of amylin and catecholaminergic agonist, phentermine, were also tested for effects on changes in body weight and body composition. Phentermine is classically referred to as a catecholaminergic agonist as it actually hits NA/5-HT receptors. DIO male rats were fattened and divided into four treatment groups, as described above. Each group was implanted with subcutaneous osmotic mini-pumps and/or inserted with an oral gavage, designed to deliver vehicle, phentermine (10 mg/kg/day), amylin (100 μg/kg/day) or phentermine (10 mg/kg/day)+amylin (100 μg/kg/day) for a 14 day period. The mini-pump contained either vehicle (50% DMSO in water) or amylin while the oral gavage administered either sterile water or phentermine. Body weight was recorded daily and body composition was measured prior to and after drug treatment using NMR.

Where [9] appears, read: 4-week pramlintide lead-in, arm of later randomization.

With “des-^1Lys-h-amylin (CNTATCATQRLANFLVHSSNNFGAILSSTNVGSNTY)”, the “amylin activity in vivo” value in data set [1] is reported as “show amylin activity in vivo”.

For ^14Leu-exendin-4 [Exendin-4 analog], in data set [2] (after two weeks, FIG. 15B), the “changes in body fat (fat mass)” value is recorded as “Fat mass loss was evident”. Further, the “changes in body protein (lean mass)” value in data set [2] (after two weeks, FIG. 15C) is given as “relatively equivalent increase in lean (protein) mass”. In data set [2] (two weeks, exendin-4 analog 10 μg/kg/day, amylin 100 μg/kg/day, FIG. 15A), the “vehicle-corrected decrease in percent body weight” value is on record as roughly 6%.

In the case of “^25Pro^26Val^28,29 Pro-h-amylin (KCNTATCATQRLANFLVHSSNNFGPVLPPTNVGSNTY)”, the “solubility and stability characteristics” value in data set [3] is “more desirable solubility and stability characteristics”.

Take PYY(3-36): the “changes in body fat (fat mass loss)” value in data set [4] (after two weeks, order PYY(3-36) alone, amylin alone, combination, FIG. 16B) is “Increasing amount of fat mass loss”. For the same molecule, the “vehicle-corrected decrease in percent body weight” value in data set [4] (two weeks, PYY(3-36) 1000 μg/kg/day, amylin 100 μg/kg/day, FIG. 16A) is on record as roughly 9%.

`Cc1c(C(=O)NN2CCCCC2)nn(-c2ccc(Cl)cc2Cl)c1-c1ccc(Cl)cc1` [rimonabant]: the “changes in body fat (fat mass)” value in data set [5] (after two weeks, FIG. 12B) was “Fat mass loss was evident”. For the same molecule, in data set [5] (after two weeks, FIG. 12C), the “changes in body protein (lean mass)” value is listed as “relatively equivalent increase in lean (protein) mass”. Besides, the “vehicle-corrected decrease in percent body weight” value in data set [5] (two weeks, rimonabant 3 mg/kg/day oral gavage, amylin 100 μg/kg/day, FIG. 12A) is roughly 4%.

Take “des-^1Lys^18Arg^25,28Pro-h-amylin (CNTATCATQRLANFLVHRSNNFGPILPSTNVGSNTY)”: the “amylin activity in vivo” value in data set [1] is “show amylin activity in vivo”.

Consider metreleptin, for which, in data set [6] (12-20 weeks, FIG. 24), the “weight reduction effect toward the end of the study (late rate, in words)” value was “approached a late rate of zero”.

With “^18Arg^25,28Pro-h-amylin (KCNTATCATQRLANFLVRSSNNFGPILPSTNVGSNTY)”, the “amylin activity in vivo” value in data set [1] was “show amylin activity in vivo”. In addition, the “solubility and stability characteristics” value in data set [3] is “more desirable solubility and stability characteristics”.

For `CC[C@H](C)[C@H](NC(=O)[C@@H]1CCCN1C(=O)CNC(=O)[C@H](Cc1ccccc1)NC(=O)[C@H](CC(N)=O)NC(=O)[C@H](CC(N)=O)NC(=O)[C@H](CO)NC(=O)[C@H](CO)NC(=O)[C@H](Cc1c[nH]cn1)NC(=O)[C@@H](NC(=O)[C@H](CC(C)C)NC(=O)[C@H](Cc1ccccc1)NC(=O)[C@H](CC(N)=O)NC(=O)[C@H](C)NC(=O)[C@H](CC(C)C)NC(=O)[C@H](CCCNC(=N)N)NC(=O)[C@H](CCC(N)=O)NC(=O)[C@@H](NC(=O)[C@H](C)NC(=O)[C@@H]1CSSC[C@H](NC(=O)[C@@H](N)CCCCN)C(=O)N[C@@H](CC(N)=O)C(=O)N[C@@H]([C@@H](C)O)C(=O)N[C@@H](C)C(=O)N[C@@H]([C@@H](C)O)C(=O)N1)[C@@H](C)O)C(C)C)C(=O)N[C@@H](CC(C)C)C(=O)N1CCC[C@H]1C(=O)N1CCC[C@H]1C(=O)N[C@H](C(=O)N[C@@H](CC(N)=O)C(=O)N[C@H](C(=O)NCC(=O)N[C@@H](CO)C(=O)N[C@@H](CC(N)=O)C(=O)N[C@H](C(=O)N[C@@H](Cc1ccc(O)cc1)C(N)=O)[C@@H](C)O)C(C)C)[C@@H](C)O` [pramlintide], in data set [6] (0-12 weeks, evaluable population, FIG. 24), the “rate of change in body weight, early rate” value is listed as −0.23±0.04 kg/week. Also, the “Mean Change in Body Weight” value in data set [6] (4-week lead-in period in which all subjects received pramlintide (180 then 360 mcg BID), arm of later randomization) was -3.65 kg. For the same molecule, in data set [6] (setting [9]), the “% Weight Loss During Lead-in <5% (share of subjects)” value is 77% and the “% Weight Loss During Lead-in ≧5% (share of subjects)” value was determined as 23%. In data set [6] (12-20 weeks, evaluable population, FIG. 24), the “rate of change in body weight, late rate” value is −0.02±0.04 kg/week. In data set [6] (12-20 weeks, FIG. 24), the “weight reduction effect toward the end of the study (late rate, in words)” value was “approached a late rate of zero”. The “course of weight loss towards the end of the study” value in data set [6] (human subjects, 24-week study) is recorded as “weight had stabilized towards the end of the 24-week study”. Further, in data set [6] (human subjects, end of 24-week study, pramlintide 360 mcg BID, metreleptin 5 mg BID, p<0.001), the “body weight reduction on average” value worked out at 8.4%. Moreover, the “average weight lost from the start of the 24-week study” value in data set [6] (human subjects, pramlintide 360 mcg BID, metreleptin 5 mg BID) turned out to be 17 pounds.

In the case of `CC(C)CC(N(C)C)C1(c2ccc(Cl)cc2)CCC1` (stereo not drawn) [sibutramine], the “changes in body fat (fat mass)” value in data set [7] (after two weeks, FIG. 10B) was “Fat mass loss was evident”. For the same molecule, in data set [7] (after two weeks, FIG. 10C), the “changes in body protein (lean mass)” value is on record as “relatively unchanged”. In data set [7] (two weeks, sibutramine 3 mg/kg/day, amylin 100 μg/kg/day, FIG. 10A), the “vehicle-corrected decrease in percent body weight” value was roughly 6%.

As to “^28Pro-h-amylin (KCNTATCATQRLANFLVHSSNNFGAILPSTNVGSNTY)”, the “amylin activity in vivo” value in data set [1] is reported as “show amylin activity in vivo”.

Turning to `CC(C)(N)Cc1ccccc1` [phentermine], the “changes in body fat (fat mass)” value in data set [8] (after two weeks, FIG. 11B) was “modest amount of fat mass loss”. For the same molecule, the “changes in body protein (lean mass)” value in data set [8] (after two weeks, FIG. 11C) is recorded as “unchanged or tended to be lost”. In data set [8] (two weeks, phentermine 10 mg/kg/day oral gavage, amylin 100 μg/kg/day, FIG. 11A), the “vehicle-corrected decrease in percent body weight” value was roughly 5%.
